# Values of other authors in patent US6387950B2, “Treatment of tumors with RARα selective retinoid compounds in combination with other anti-tumor agents” (Allergan Sales, Inc., priority 2000, dated 2002).
# Legend:
# RARγ receptors = target: T1, RARγ receptors (Homo sapiens, UniProt P13631); details: Fanjul et al. 1996; cited from earlier work
# T1 sequence (P13631 1-454): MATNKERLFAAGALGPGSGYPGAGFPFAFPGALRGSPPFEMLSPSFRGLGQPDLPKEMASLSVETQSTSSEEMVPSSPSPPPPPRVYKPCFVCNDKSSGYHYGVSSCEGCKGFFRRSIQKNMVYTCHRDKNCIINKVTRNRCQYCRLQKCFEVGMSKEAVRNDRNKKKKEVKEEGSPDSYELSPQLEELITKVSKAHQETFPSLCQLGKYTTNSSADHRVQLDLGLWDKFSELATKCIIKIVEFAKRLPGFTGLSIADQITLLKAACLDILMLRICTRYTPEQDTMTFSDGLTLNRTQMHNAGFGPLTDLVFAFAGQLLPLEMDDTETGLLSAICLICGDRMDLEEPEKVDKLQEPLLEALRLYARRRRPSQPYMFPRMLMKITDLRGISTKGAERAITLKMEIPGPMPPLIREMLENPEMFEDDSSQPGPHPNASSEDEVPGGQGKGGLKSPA
# carcinoma cell lines = details: in some of the cell lines; Fanjul et al. 1996; cited from earlier work
# [1] = test system: MCF-7 human breast cancer lines; details: Toma et al. 1997; cited from earlier work
# [2] = test system: MDA-MB 231 human carcinoma cell lines; details: Kurbacher et al. 1996; cited from earlier work
# [3] = test system: MCF-7 human carcinoma cell lines; details: Kurbacher et al. 1996; cited from earlier work
structure (smiles),measurement,setting,value
COC(=O)c1ccc(/C(C)=C/c2ccc3c(c2)C(C)(C)CCC3(C)C)cc1 [SRI 11220],receptor activity,RARγ receptors,RARγ agonist
same,anti-proliferative activity in combination with interferon,carcinoma cell lines,synergistic
CC1=C(/C=C/C(C)=C/C=C/C(C)=C/C(=O)O)C(C)(C)CCC1 [all trans retinoic acid],effect in combination with tamoxifen (TAM),[1],synergistic effect
same,effect in combination with α interferon (α IFN),[1],synergistic effects
O=C1O[C@H]([C@@H](O)CO)C(O)=C1O [vitamin C],action with certain chemotherapeutic anti-tumor agents,[2],synergistic action
same,action with certain chemotherapeutic anti-tumor agents,[3],synergistic action
